{"source": "patent US20180256673A1", "about": "“METHODS FOR TREATING FUNGAL INFECTIONS” (priority 2015, published 2018)", "key": {"[1]": {"target": "1,3-β-D-glucan synthase from C. albicans (Candida albicans, UniProt O13428, S645P)", "sequence (O13428 entry or part of it S645P)": "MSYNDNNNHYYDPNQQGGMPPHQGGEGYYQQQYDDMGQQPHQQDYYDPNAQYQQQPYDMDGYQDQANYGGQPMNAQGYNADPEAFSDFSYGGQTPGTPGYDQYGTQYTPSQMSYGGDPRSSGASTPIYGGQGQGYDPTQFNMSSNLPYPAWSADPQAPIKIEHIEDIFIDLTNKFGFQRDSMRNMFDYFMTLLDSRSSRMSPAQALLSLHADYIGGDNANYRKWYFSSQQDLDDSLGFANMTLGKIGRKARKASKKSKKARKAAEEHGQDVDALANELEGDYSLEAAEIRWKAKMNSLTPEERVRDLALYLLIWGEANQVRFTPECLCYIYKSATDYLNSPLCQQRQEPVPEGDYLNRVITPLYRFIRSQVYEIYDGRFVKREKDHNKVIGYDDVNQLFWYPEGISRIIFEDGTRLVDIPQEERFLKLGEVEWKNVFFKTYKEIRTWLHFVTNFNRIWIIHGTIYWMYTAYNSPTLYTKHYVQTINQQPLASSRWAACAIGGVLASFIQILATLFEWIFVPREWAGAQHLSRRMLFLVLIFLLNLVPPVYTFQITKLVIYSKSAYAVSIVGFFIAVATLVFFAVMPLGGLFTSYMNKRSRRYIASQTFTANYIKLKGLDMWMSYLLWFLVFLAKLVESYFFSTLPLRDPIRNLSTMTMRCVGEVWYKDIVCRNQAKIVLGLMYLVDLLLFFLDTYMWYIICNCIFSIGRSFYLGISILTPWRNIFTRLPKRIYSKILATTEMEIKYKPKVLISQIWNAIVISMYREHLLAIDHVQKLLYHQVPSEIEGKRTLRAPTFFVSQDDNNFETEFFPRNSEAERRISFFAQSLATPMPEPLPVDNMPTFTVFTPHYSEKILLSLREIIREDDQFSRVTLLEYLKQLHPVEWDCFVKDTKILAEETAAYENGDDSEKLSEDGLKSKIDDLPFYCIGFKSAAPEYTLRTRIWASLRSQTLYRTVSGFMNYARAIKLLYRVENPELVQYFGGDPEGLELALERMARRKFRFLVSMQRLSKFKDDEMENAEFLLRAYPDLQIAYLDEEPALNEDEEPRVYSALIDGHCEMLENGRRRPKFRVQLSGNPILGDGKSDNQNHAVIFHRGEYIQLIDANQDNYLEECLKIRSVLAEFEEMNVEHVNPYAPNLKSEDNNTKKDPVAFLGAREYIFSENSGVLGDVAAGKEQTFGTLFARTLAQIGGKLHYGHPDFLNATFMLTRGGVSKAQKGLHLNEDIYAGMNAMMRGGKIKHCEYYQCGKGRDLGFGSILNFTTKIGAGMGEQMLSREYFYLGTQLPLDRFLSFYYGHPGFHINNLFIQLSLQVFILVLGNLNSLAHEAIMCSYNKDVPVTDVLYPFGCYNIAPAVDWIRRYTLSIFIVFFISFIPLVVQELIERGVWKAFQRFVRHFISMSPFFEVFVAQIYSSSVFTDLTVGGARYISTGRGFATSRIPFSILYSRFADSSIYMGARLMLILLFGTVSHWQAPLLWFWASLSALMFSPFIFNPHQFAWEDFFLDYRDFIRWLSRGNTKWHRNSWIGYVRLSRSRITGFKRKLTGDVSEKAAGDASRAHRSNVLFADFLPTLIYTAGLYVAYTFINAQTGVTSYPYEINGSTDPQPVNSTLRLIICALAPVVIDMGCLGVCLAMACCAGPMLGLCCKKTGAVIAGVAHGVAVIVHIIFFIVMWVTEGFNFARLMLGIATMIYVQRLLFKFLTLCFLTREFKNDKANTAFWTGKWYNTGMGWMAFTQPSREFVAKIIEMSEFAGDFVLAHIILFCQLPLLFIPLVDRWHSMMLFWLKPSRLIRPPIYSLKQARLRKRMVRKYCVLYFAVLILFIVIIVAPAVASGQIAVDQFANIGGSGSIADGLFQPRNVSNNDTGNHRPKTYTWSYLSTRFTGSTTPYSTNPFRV", "test": "Glucan synthase (GS) inhibition assay", "conditions": "IC50, DPL20; Fks1 S645P"}, "[2]": {"target": "1,3-β-D-glucan synthase from C. albicans (Candida albicans, UniProt O13428)", "test": "Glucan synthase (GS) inhibition assay"}, "[3]": {"test_system": "azole-resistant C. albicans (R357)", "test": "Immunosuppressed rat model of vulvovaginal candidiasis, vaginal CFU", "format": "in vivo, Candida albicans", "conditions": "once daily for 3 days, intravaginal 0.1 mL/rat (Compound 1 as 3% gel)"}, "C. dubliniensis": {"test_system": "C. dubliniensis", "test": "Antifungal susceptibility testing (CLSI M27-S4), WT and echinocandin-resistant isolates", "conditions": "24 hr", "procedure": "(§2) Antifungal susceptibility testing. Antifungal susceptibility testing was performed in triplicate for a collection of 95 Candida strains (20 C. albicans, 20 C. glabrata, 2 C. dubliniensis, 15 C. krusei, 19 C. parapsilosis, and 19 C. tropicalis) that included 30 isolates showing an echinocandin resistance (ER) phenotype (caspofungin-resistant) in accordance with the guidelines described in the Clinical and Laboratory Standards Institute (CLSI) document M27-S4. […] Stock solutions of the drugs were kept at −86° C."}, "C. albicans": {"test_system": "C. albicans", "test": "Mutant prevention concentration (MPC) determination", "format": "cell-based, Candida albicans", "conditions": "wild-type isolates; 24 hr, ~1×10^7 CFU/mL"}, "Candida orthopsilosis": {"test_system": "Candida orthopsilosis", "test": "Broth microdilution of invasive fungal isolates (CLSI M27-A3/M38-A2)", "format": "cell-based", "conditions": "10 isolates"}, "Candida tropicalis": {"test_system": "Candida tropicalis", "test": "Broth microdilution of invasive fungal isolates (CLSI M27-A3/M38-A2)", "format": "cell-based"}, "Candida dubliniensis": {"test_system": "Candida dubliniensis", "test": "Broth microdilution of invasive fungal isolates (CLSI M27-A3/M38-A2)", "format": "cell-based", "conditions": "11 isolates"}, "[4]": {"test_system": "C. krusei ATCC 6258, ATCC 14243", "test": "Time-kill assay in vagina-simulative medium pH 4.0 (Table 20)", "format": "cell-based, Candida krusei", "conditions": "two C. krusei strains; all concentrations (2-128 μg/mL)"}, "C. albicans NRRL Y-477": {"test_system": "C. albicans NRRL Y-477", "format": "cell-based, Candida albicans", "protocol": "(§1) Spontaneous mutant selection. […] Three individual colonies from each strain were used to start cultures in RPMI. […] One milliliter aliquots were spread onto SDA plates containing drug with sterile glass beads. Starting viable count was enumerated by triplicate plating of serial dilutions of the starting inoculum. […] Glycerol stocks of putative mutant colonies were stored at −80° C. […] Spontaneous mutation frequencies were calculated by dividing the number of resistant colonies on a given plate by the starting inoculum plated. A subset of mutants (weighted heavily towards those selected with CMP1) were then evaluated by MIC and sequencing of FKS gene hot spot regions."}, "C. tropicalis": {"test_system": "C. tropicalis", "test": "Antifungal susceptibility testing (CLSI M27-S4), WT and echinocandin-resistant isolates", "conditions": "24 hr", "procedure": "as §2"}, "[5]": {"test_system": "C. parapsilosis vaginal isolates", "test": "Susceptibility testing of VVC clinical isolates at pH 7 and 4 (CLSI M27-A3)", "format": "cell-based, Candida parapsilosis"}, "C. parapsilosis CP02": {"test_system": "C. parapsilosis CP02", "format": "cell-based, Candida parapsilosis", "protocol": "as §1"}, "[6]": {"conditions": "SDA, minimum concentration to cleanly inhibit growth"}}, "note": "“And” between values parts separate entries of the source, which are not always exact repeats. Identical values can stand only once. Starred links: 1 amine or outer side, 2 acyl side, 3 side chain; linkers in the order of their positions; H or OH if unused. Positions of bridges follow the written chain, without caps; N, C: chain ends. Non-standard residues stand in square brackets, D forms with d. Residues, ends and D or L forms follow the SMILES beside them. *: point of attachment. Orn(4R-OH,5R-OCH2CH2NMe3+) = C[N+](C)(C)CCO[C@@H](N[*:3])[C@H](O)C[C@H](N[*:1])C(=O)[*:2]; pTerphenylCO(4''-OnC5H11) = CCCCCOc1ccc(-c2ccc(-c3ccc(C(=O)*)cc3)cc2)cc1; hTyr(3S-OH,4S-OH) = N[C@H](C(=O)O)[C@H](O)[C@@H](O)c1ccc(O)cc1; Pro(3S-OH,4S-Me) = C[C@H]1CN[C@H](C(=O)O)[C@H]1O; Hyp = O=C(O)[C@@H]1C[C@@H](O)CN1", "data": [{"compound": "CCCCCOc1ccc(-c2ccc(-c3ccc(C(=O)N[C@H]4C[C@@H](O)[C@@H](OCC[N+](C)(C)C)NC(=O)[C@@H]5[C@@H](O)[C@@H](C)CN5C(=O)[C@H]([C@@H](C)O)NC(=O)[C@H]([C@H](O)[C@@H](O)c5ccc(O)cc5)NC(=O)[C@@H]5C[C@@H](O)CN5C(=O)[C@H]([C@@H](C)O)NC4=O)cc3)cc2)cc1", "note": "[Compound 1] ({pTerphenylCO(4''-OnC5H11)}-[Orn(4R-OH,5R-OCH2CH2NMe3+)]T[Hyp][hTyr(3S-OH,4S-OH)]T[Pro(3S-OH,4S-Me)]; lactam 1-C)", "values": [{"measurement": "IC50", "setting": "[1]", "value": 2150, "unit": "nM"}, {"measurement": "IC50", "setting": "[2]; IC50, DPL1002, WT", "value": 11.6, "unit": "nM"}, {"measurement": "IC50", "setting": "[2]; IC50, glucan synthase, ATCC 90028, WT", "value": 11.4, "unit": "nM"}, {"measurement": "IC50", "setting": "[2]; glucan synthase, DPL22, Fks1p S645P/S", "value": 24.5, "unit": "nM"}, {"measurement": "reduction in vaginal CFU compared with no treatment control", "setting": "[3]; a week later, 8 days after treatment end (day 12)", "value": "> 3", "unit": "log-fold"}, {"measurement": "reduction in vaginal CFU compared with no treatment control", "setting": "[3]; one day after treatment end (day 5)", "value": 3.8, "unit": "log-fold"}, {"measurement": "MIC median (range)", "setting": "C. dubliniensis; ER (1 isolate)", "value": 0.03, "unit": "µg/mL"}, {"measurement": "MIC median (range)", "setting": "C. dubliniensis; WT (1 isolate)", "value": 0.03, "unit": "µg/mL"}, {"measurement": "MPC", "setting": "C. albicans", "value": 16, "unit": "µg/mL"}, {"measurement": "Cumulative % of isolates inhibited at MIC 0.12 μg/mL", "setting": "Candida orthopsilosis", "value": "(10.0) %"}, {"measurement": "Cumulative % of isolates inhibited at MIC 0.25 μg/mL", "setting": "Candida orthopsilosis", "value": "(40.0) %"}, {"measurement": "Cumulative % of isolates inhibited at MIC 0.5 μg/mL", "setting": "Candida orthopsilosis", "value": "(50.0) %"}, {"measurement": "Cumulative % of isolates inhibited at MIC 1 μg/mL", "setting": "Candida orthopsilosis", "value": "(90.0) %"}, {"measurement": "Cumulative % of isolates inhibited at MIC 2 μg/mL", "setting": "Candida orthopsilosis", "value": "(100.0) %"}, {"measurement": "Number of isolates inhibited at MIC 0.12 μg/mL", "setting": "Candida orthopsilosis", "value": 1}, {"measurement": "Number of isolates inhibited at MIC 0.25 μg/mL", "setting": "Candida orthopsilosis", "value": 3}, {"measurement": "Number of isolates inhibited at MIC 0.5 μg/mL", "setting": "Candida orthopsilosis", "value": 1}, {"measurement": "Number of isolates inhibited at MIC 1 μg/mL", "setting": "Candida orthopsilosis", "value": 4}, {"measurement": "Number of isolates inhibited at MIC 2 μg/mL", "setting": "Candida orthopsilosis", "value": 1}, {"measurement": "MIC50", "setting": "Candida orthopsilosis; Lodderomyces orthopsilosis, read-out: MIC50", "value": 0.5, "unit": "µg/mL"}, {"measurement": "MIC90", "setting": "Candida orthopsilosis; Lodderomyces orthopsilosis, read-out: MIC90", "value": 1, "unit": "µg/mL"}, {"measurement": "Cumulative % of isolates inhibited at MIC 0.015 μg/mL", "setting": "Candida tropicalis; 51 isolates", "value": "(56.9) %"}, {"measurement": "Cumulative % of isolates inhibited at MIC 0.03 μg/mL", "setting": "Candida tropicalis; 51 isolates", "value": "(88.2) %"}, {"measurement": "Cumulative % of isolates inhibited at MIC 0.06 μg/mL", "setting": "Candida tropicalis; 51 isolates", "value": "(100.0) %"}, {"measurement": "Cumulative % of isolates inhibited at MIC ≤0.008 μg/mL", "setting": "Candida tropicalis; 51 isolates", "value": "(3.9) %"}, {"measurement": "Number of isolates inhibited at MIC 0.015 μg/mL", "setting": "Candida tropicalis; 51 isolates", "value": 27}, {"measurement": "Number of isolates inhibited at MIC 0.03 μg/mL", "setting": "Candida tropicalis; 51 isolates", "value": 16}, {"measurement": "Number of isolates inhibited at MIC 0.06 μg/mL", "setting": "Candida tropicalis; 51 isolates", "value": 6}, {"measurement": "Number of isolates inhibited at MIC ≤0.008 μg/mL", "setting": "Candida tropicalis; 51 isolates", "value": 2}, {"measurement": "MIC50", "setting": "Candida tropicalis; Candida tropicalis, 51 isolates, read-out: MIC50", "value": 0.015, "unit": "µg/mL"}, {"measurement": "MIC90", "setting": "Candida tropicalis; Candida tropicalis, 51 isolates, read-out: MIC90", "value": 0.06, "unit": "µg/mL"}, {"measurement": "concentration at which all isolates were inhibited", "setting": "Candida tropicalis; n=51", "value": "≤ 0.06", "unit": "µg/mL"}, {"measurement": "Cumulative % of isolates inhibited at MIC 0.03 μg/mL", "setting": "Candida dubliniensis", "value": "(54.5) %"}, {"measurement": "Cumulative % of isolates inhibited at MIC 0.06 μg/mL", "setting": "Candida dubliniensis", "value": "(90.9) %"}, {"measurement": "Cumulative % of isolates inhibited at MIC 0.12 μg/mL", "setting": "Candida dubliniensis", "value": "(100.0) %"}, {"measurement": "Number of isolates inhibited at MIC 0.03 μg/mL", "setting": "Candida dubliniensis", "value": 6}, {"measurement": "Number of isolates inhibited at MIC 0.06 μg/mL", "setting": "Candida dubliniensis", "value": 4}, {"measurement": "Number of isolates inhibited at MIC 0.12 μg/mL", "setting": "Candida dubliniensis", "value": 1}, {"measurement": "MIC50", "setting": "Candida dubliniensis; Candida dubliniensis, read-out: MIC50", "value": 0.03, "unit": "µg/mL"}, {"measurement": "MIC90", "setting": "Candida dubliniensis; Candida dubliniensis, read-out: MIC90", "value": 0.06, "unit": "µg/mL"}, {"measurement": "time at which cidality (≥3-log reduction in CFU) was achieved", "setting": "[4]", "value": "< 24", "unit": "h"}, {"measurement": "Median mutation frequency", "setting": "C. albicans NRRL Y-477", "value": "5.00E−08"}, {"measurement": "Plate concentration", "setting": "C. albicans NRRL Y-477; [6]", "value": 0.06, "unit": "µg/mL"}, {"measurement": "Freq. (replicate mutation frequency)", "setting": "C. albicans NRRL Y-477; replicate plates 1-3, listed as CMP1", "value": "5.00E−08 and 2.27E−08 and 5.47E−08"}, {"measurement": "MIC median (range)", "setting": "C. tropicalis; ER (4 isolates)", "value": "2.00 (0.5-2) mg/L"}, {"measurement": "MIC median (range)", "setting": "C. tropicalis; WT (15 isolates)", "value": "0.03 (0.03)^ mg/L"}, {"measurement": "MIC90", "setting": "[5]; 24 h, pH 4", "value": 2, "unit": "µg/mL"}, {"measurement": "MIC90", "setting": "[5]; 24 h, pH 7", "value": 2, "unit": "µg/mL"}, {"measurement": "MIC90", "setting": "[5]; 48 h, pH 4", "value": 2, "unit": "µg/mL"}, {"measurement": "MIC90", "setting": "[5]; 48 h, pH 7", "value": 4, "unit": "µg/mL"}, {"measurement": "Median mutation frequency", "setting": "C. parapsilosis CP02", "value": "2.08E−08"}, {"measurement": "Plate concentration", "setting": "C. parapsilosis CP02; [6]", "value": 8, "unit": "µg/mL"}]}]}
